Experimental data published in paper PMC11513924, “Addressing the Intracellular Vestibule of the Plasmodial Lactate Transporter PfFNT by p-Substituted Inhibitors Amplifies In Vitro Activity” (Journal of Medicinal Chemistry, 2024).
Residue numbers refer to the chain shown, from its start. Read-outs that look alike come from different tables or passages of the source.

Experiments:
[1] = biological target: T1, PfFNT (Plasmodium falciparum, UniProt O77389); test: Yeast-based PfFNT 14C-lactate transport assay; assay type: cell-based; conditions: 14C-lactate transport, PfFNT wild type; read-out: IC50 (transport, yeast)
T1 construct: expressed in transfected cells; membranes solubilized
T1 sequence (O77389 1-309): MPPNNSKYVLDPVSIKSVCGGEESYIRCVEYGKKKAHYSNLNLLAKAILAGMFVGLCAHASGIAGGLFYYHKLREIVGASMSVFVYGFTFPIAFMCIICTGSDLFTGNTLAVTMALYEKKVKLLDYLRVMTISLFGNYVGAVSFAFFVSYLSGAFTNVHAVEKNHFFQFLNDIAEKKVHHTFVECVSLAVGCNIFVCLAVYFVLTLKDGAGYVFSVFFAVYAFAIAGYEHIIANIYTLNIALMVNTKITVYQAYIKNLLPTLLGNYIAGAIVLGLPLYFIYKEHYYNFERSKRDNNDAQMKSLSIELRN
Experimental: (§1) Lactate transport functionality of PfFNT was assayed as described before.[4] Briefly, Saccharomyces cerevisiae W303-1A jen1Δady2Δcells[32] (MATa, can1-100, ade2-loc, his3-11-15, leu2-3,-112, trp1-1-1, ura3-1, jen1::kanMX4, ady2::hphMX4) kindly provided by M. Casal expressing PfFNT was grown at 29 °C to an OD600 of 1 (±0.1). Harvested cells were resuspended to an OD600 of 50 (±5) in 50 mM HEPES/Tris, pH 6.8 (±0.1). 10–15 min prior to the assay, 80 μL of yeast suspension were added to 1 μL of DMSO with or without inhibitor in a 1.5 mL reaction tube at 18 °C. Twenty μL of L-lactate solution spiked with [1-^14C]-L-lactate (Hartmann Analytic) was added yielding a 1 mM inward gradient with 0.04 μCi label. Transport was stopped after 30 s by abrupt dilution with 1 mL of ice-cold water, vacuum filtration via GF/C filter membranes (Whatman), and washing with 7 mL of ice-cold water. The radio label was analyzed by liquid scintillation counting in 3 mL of scintillation cocktail (Rotiszint eco plus, Carl Roth) using a Packard TriCarb 2900 TR (PerkinElmer Inc.).
(§2) Transport assays in yeast were done in triplicate biological replicates. At least nine technical replicates were measured around the IC50 value, concentrations with no or full inhibition were determined from at least three technical replicates. EC50-values were determined from 2 to 4 biological replicates. IC50 and EC50 curves were fitted by the Hill equation with variable slope (Graph Pad Prism 10). Error bars denote ± SEM (for n ≥ 3) or ± range (for n = 2). For the EC50-value of 7a the error of the fitting of the curve is given. Cytotoxicity was determined from biological triplicates; error is shown as SEM.

[2] = test system: Plasmodium falciparum 3D7 parasites; test: P. falciparum 3D7 culture growth assay in erythrocytes (in vitro activity); assay type: cell-based; conditions: Plasmodium falciparum, 3D7, Erythrocyte; for activity at 0.05 µM / activity at 0.1 µM / activity at 0.2 µM: 48 h, % of untreated control; for activity at 0.05 µM / inhibition at 0.05 µM: 50 nM compound; for activity at 0.05 µM: read-out: % Growth at 50 nM (in vitro, 3D7); for activity at 0.1 µM: 100 nM compound, read-out: % Growth at 100 nM (in vitro, 3D7); for activity at 0.2 µM: 200 nM compound, read-out: % Growth at 200 nM (in vitro, 3D7); for inhibition at 0.05 µM: 100 minus % growth, read-out: inhibitory activity at 50 nM (in vitro, 3D7)
Experimental: The parasitemia was measured using an LSR II FACS (BD Biosciences) as described.[34],[35] Growth was assessed as % of untreated control. EC50 curves were plotted using Graph Pad Prism.
as §2, with “EC50-values were determined from 2 to 4 biological replicates.” left out, “For the EC50-value of 7a the error of the fitting of the curve is given.” left out

[3] = biological target: T1, PfFNT; test: Fluorescence cross-correlation spectroscopy (FCCS) competition binding to solubilized PfFNT-GFP
Experimental: FCCS measurements were conducted and analyzed as before.[20],[30] Briefly, membranes of stably transfected cells expressing PfFNT with a C-terminal GFP (green) were solubilized. BH267.meta 2 fused with DY647 (red) was used as a tracer to monitor the binding of compounds in a competition assay. Assays were done in […] glass bottom plates (cat. no. PS96B-G175, SWISSCI, Switzerland) using a plate reader (Insight, Evotec Technologies, Germany) fitted with a U-Apo300 40× water immersion lens, NA 1.15 (Olympus, Japan). Excitation was done with an argon-ion laser (488 nm) and a helium–neon laser (633 nm). Fluorescence fluctuations were recorded 10 times for 5 s per sample and fitted using FCS+ plus Analyze (PerkinElmer software). Initially, IC50 values were determined from the concentration of the dual labeled complex titrated against a competitor in a range of 100 pM to 100 μM (Figure S1). Then, Ki values were calculated using the Cheng Prusoff equation[31] based on the previously determined KD value for the BH267.meta-DY647 tracer.[20]

[4] = test system: albumin; test: Plasma protein (albumin) binding by ultracentrifugation; assay type: in vitro ADME; conditions: pooled human plasma
Experimental: (§3) Clearance, half-life and plasma protein binding were assayed at TGC LifeScience, Kolkata, India, as described before.[36] Test compounds were incubated in duplicate in 96-well plates at 1 μM concentration with pooled human liver microsomes in 0.1 M phosphate buffer, pH 7.4 (0.4 mg mL^–1 final protein concentration; XenoTech, Lenexa, KS) in the presence and absence of 1 mM NADPH. Metabolism reactions were stopped by addition of 300 μL of ice-cold acetonitrile containing carbamazepine at 0.0236 μg mL^–1 as an internal standard, collection and analysis of the supernatant by LC–MS/MS (Agilent Rapid Resolution HPLC, AB SCIEX 4500 MS). The relative loss of the test compound over time was used to determine the first order rate constant for calculation of the in vitro intrinsic clearance and half-life.[37] Plasma protein binding was determined by ultracentrifugation from pooled human plasma spiked with 5 μM test compound. Aliquots were transferred immediately (total plasma concentration) or after 1 h at 37 °C (protein bound fraction) to ice-cold acetonitrile containing 0.0236 μg mL^–1 carbamazepine as an internal standard, ultracentrifuged for 4 h at 37 °C (Beckman Optima L-80XP), and analyzed by LC–MS/MS (Agilent Rapid Resolution HPLC, AB SCIEX 4500 QTRAP MS).

[5] = test system: P. berghei; parameters: method as in PMID 37428074; conditions: all dosing regimens; cited from earlier work
[6] = test system: Plasmodium falciparum 3D7 parasites; conditions: ref Walloch[6] et al. 2020; read-out: EC50 (in vitro, 3D7); cited from earlier work
[7] = Microsomal clearance and half-life; assay type: in vitro ADME, human; conditions: 1 μM compound, 0.4 mg mL^–1 protein
Experimental: as §3

[8] = Lipophilicity log D7.4 by HPLC (OECD guideline); assay type: physicochemical; conditions: RP-8 HPLC column (ZORBAX Eclipse XDB-C8), pH 7.4
Experimental: Lipophilicity was determined according to the OECD Guidelines for the Testing of Chemicals no. […]. Briefly, the test compounds plus 9 standards (4-acetylpyridine, acetanilide, acetophenone, methyl benzoate, ethyl benzoate, benzophenone, phenyl benzoate, diphenyl ether, triphenylamine) were separated by HPLC with UV detection at 220 nm (Waters HPLC 1525 with tunable absorbance detector 486) using an RP-8 column (Agilent Technologies ZORBAX Eclipse XDB-C8 4.6 × 150 mm, 5 μm) at 20 °C. Eluents A (20 mM ammonium formate, pH 7.4) and B (methanol) were used to generate a gradient profile of 80% A–100% B (0–35 min), 100% B (35–37 min), 100% B–80% A (37–42 min), and 80% A (42–55 min) at a flow rate of 0.8 mL min^–1. The dead time was determined via the injection peak caused by the solvent. The log D7.4 values were calculated by correlating the capacity factors with the known values of the standards via polynomial fitting.

[9] = biological target: T2, PfFNT G107S (Plasmodium falciparum, UniProt O77389, G107S); test: Yeast-based 14C-lactate transport assay, PfFNT G107S resistance mutant; assay type: cell-based
T2 construct: expressed in transfected cells; host or cells: Saccharomyces cerevisiae (yeast transport assay; strain as for wild type, inferred from the shared method)
T2 sequence (O77389 1-309 G107S): T1 sequence (O77389 1-309) with G107S
Experimental: as §1, §2

Compound	IC50 [1] [nM]	activity at 0.05 µM [2] [%]	activity at 0.1 µM [2] [%]	activity at 0.2 µM [2] [%]	inhibition at 0.05 µM [2] [%]	Ki [3] [nM]	unbound fraction in plasma [4] [%]	albumin binding ([4]; 5 μM) [%]	parasites eliminated [5] [%]	EC50 [6] [nM]	human liver microsomes Clint [7] [mL min^–1 kg^–1]	half-life at 1 µM ([7]; human, pooled human liver microsomes, pH 7.4, read-out: human liver microsomes t1/2) [h]	chromatographic logD [8]	Ki ([3]; competition against BH267.meta-DY647 tracer, Cheng Prusoff, read-out: Ki (FCCS, protein)) [nM]	IC50 [9] [nM]
O=C(/C=C(\O)C(F)(F)C(F)(F)F)c1ccc(NCC2CC2)nc1 [7m, 1-(6-((Cyclopropylmethyl)amino)pyridin-3-yl)-4,4,5,5,5-pentafluoro-3-hydroxypent-2-en-1-one]	170 ± 10	6	3	2	94	18 ± 3	–	–	–	–	–	–	–	–	–
CC(C)Nc1ccc(C(=O)/C=C(\O)C(F)(F)C(F)(F)F)cn1 [7n, 4,4,5,5,5-Pentafluoro-3-hydroxy-1-(6-(isopropylamino)pyridin-3-yl)pent-2-en-1-one]	150 ± 10	53	31	15	–	67 ± 11	–	–	–	–	–	–	–	–	–
CC(C)(C)Nc1ccc(C(=O)/C=C(\O)C(F)(F)C(F)(F)F)cn1 [7o, 1-(6-(tert-Butylamino)pyridin-3-yl)-4,4,5,5,5-pentafluoro-3-hydroxypent-2-en-1-one]	370 ± 40	97	97	93	–	239 ± 101	–	–	–	–	–	–	–	–	–
O=C(/C=C(\O)C(F)(F)C(F)(F)F)c1ccc(NCc2ccc(F)cc2)nc1 [7p, 4,4,5,5,5-Pentafluoro-1-(6-((4-fluorobenzyl)amino)pyridin-3-yl)-3-hydroxypent-2-en-1-one]	390 ± 30	37	7	0	–	16 ± 3	–	–	–	–	–	–	–	–	–
COc1cc(CNc2ccc(C(=O)/C=C(\O)C(F)(F)C(F)(F)F)cn2)cc(OC)c1OC [7q, 4,4,5,5,5-Pentafluoro-3-hydroxy-1-(6-((3,4,5-trimethoxybenzyl)amino)pyridin-3-yl)pent-2-en-1-one]	2110 ± 320	107	105	117	–	49 ± 12	–	–	–	–	–	–	–	–	–
CCCN(C)c1ccc(C(=O)/C=C(\O)C(F)(F)C(F)(F)F)cn1 [7r, 4,4,5,5,5-Pentafluoro-3-hydroxy-1-(6-(methyl(propyl)amino)pyridin-3-yl)pent-2-en-1-one]	350 ± 80	114	–	96	–	98 ± 11	–	–	–	–	–	–	–	–	–
CCN(CC)c1ccc(C(=O)/C=C(\O)C(F)(F)C(F)(F)F)cn1 [7s, 1-(6-(Diethylamino)pyridin-3-yl)-4,4,5,5,5-pentafluoro-3-hydroxypent-2-en-1-one]	380 ± 20	71	76	80	–	142 ± 24	–	–	–	–	–	–	–	–	–
CCC(=O)Nc1ccc(C(=O)/C=C(\O)C(F)(F)C(F)(F)F)cn1 [8b, N-(5-(4,4,5,5,5-Pentafluoro-3-hydroxypent-2-enoyl)pyridin-2-yl)propionamide]	250 ± 20	17	10	4	–	27 ± 4	–	–	–	–	–	–	–	–	–
O=C(/C=C(\O)C(F)(F)C(F)(F)F)c1ccc(NC(=O)c2ccccc2)nc1 [8c, N-(5-(4,4,5,5,5-Pentafluoro-3-hydroxypent-2-enoyl)pyridin-2-yl)benzamide]	370 ± 20	78	51	13	–	16 ± 2	–	–	–	–	–	–	–	–	–
O=C(/C=C(\O)C(F)(F)C(F)(F)F)c1cccnc1 [compound 2, 4,4,5,5,5-Pentafluoro-3-hydroxy-1-(pyridin-3-yl)pent-2-en-1-one, reference compound]	–	> 90	–	–	< 10	–	8.76	91.24	> 99.7	240 ± 10	3.98	5.8	1.75	35 ± 10	–
O=C(/C=C(\O)C(F)(F)C(F)(F)F)c1cccc(O)c1 [compound 6, 4,4,5,5,5-Pentafluoro-3-hydroxy-1-(3-hydroxyphenyl)pent-2-en-1-one]	160 ± 10	–	–	–	–	26 ± 3	–	–	–	–	–	–	–	–	6710
